Key:
[1] = target: T1, Serine/threonine-protein kinase Chk1 (Homo sapiens, UniProt O14757); test: Inhibition of recombinant His-tagged CHK1 using biotin-RSGLYRSPSMPENLNRPR as substrate after 1 hr by scintillation proximity assay
T1 sequence (O14757 whole entry): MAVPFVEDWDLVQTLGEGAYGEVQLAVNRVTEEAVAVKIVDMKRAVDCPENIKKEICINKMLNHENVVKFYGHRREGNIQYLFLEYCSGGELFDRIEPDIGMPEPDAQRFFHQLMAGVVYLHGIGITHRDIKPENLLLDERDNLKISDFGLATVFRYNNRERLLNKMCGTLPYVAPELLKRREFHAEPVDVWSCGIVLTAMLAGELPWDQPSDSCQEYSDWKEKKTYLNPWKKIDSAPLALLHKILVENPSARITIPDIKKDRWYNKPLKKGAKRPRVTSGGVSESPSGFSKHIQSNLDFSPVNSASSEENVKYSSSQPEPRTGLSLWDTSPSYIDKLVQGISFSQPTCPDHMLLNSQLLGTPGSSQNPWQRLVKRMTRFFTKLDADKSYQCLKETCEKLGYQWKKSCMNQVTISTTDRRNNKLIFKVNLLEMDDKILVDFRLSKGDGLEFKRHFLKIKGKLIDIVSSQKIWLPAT

[2] = target: T1, Serine/threonine-protein kinase Chk1; test: Inhibition of CHK1 in human U2OS cells pretreated with hydroxyurea assessed as gamma-H2AX level after 2 hrs by immunofluorescence assay; assay type: cell-based
[3] = Selectivity ratio of IC50 for cyclinE/CDK2 to IC50 for CHK1
[4] = target: Cyclin-dependent kinase 2/cyclin E1 (Homo sapiens, UniProt P24941); test: Inhibition of Cyclin E/CDK2 expressed in Sf9 cells using [33gamma]ATP after 1 hr by liquid scintillation counter
[5] = target: T1, Serine/threonine-protein kinase Chk1; test: Binding affinity to CHK1 by affinity-selection-mass […] assay

CN(C)Cc1ccc(-c2nc(C(=O)Nc3ccccc3N3CCNCC3)cs2)cc1
IC50 [1]: > 50000 nM

O=C(Nc1ccccc1N1CCNCC1)c1csc(-c2cc3ccccc3s2)n1
EC50 [2]: 1500 nM
Ratio IC50 [3]: 33
IC50 [1]: 7 nM

O=C(Nc1ccccc1N1CCNCC1)c1csc(-c2cccs2)n1
Ratio IC50 [3]: 16
IC50 [1]: 36 nM

O=C(Nc1ccccc1N1CCNCC1)c1cc(-c2ccc3c(c2)OCO3)on1
IC50 [1]: 3400 nM

Cc1nc(-c2ccc3c(c2)CCO3)sc1C(=O)Nc1ccccc1N1CCNCC1
IC50 [1]: 21000 nM

O=C(Nc1ccccc1N1CCNCC1)c1csc(-c2ccsc2)n1
Ratio IC50 [3]: 5
IC50 [1]: 210 nM

O=C(Nc1ccccc1N1CCNCC1)c1csc(-c2cccnc2)n1
Ratio IC50 [3]: 0.8
IC50 [1]: 1400 nM

O=C(Nc1ccccc1N1CCNCC1)c1csc(-c2cc[nH]c2)n1
IC50 [1]: 100 nM

O=C(Nc1ccccc1N1CCOCC1)c1csc(-c2ccc3c(c2)CCO3)n1
IC50 [1]: > 50000 nM

CC1CNCCN1c1ccccc1NC(=O)c1csc(-c2ccc3c(c2)CCO3)n1 (stereo unspecified)
IC50 [1]: 280 nM

O=C(Nc1ccccc1N1CCNCC1)c1csc(-c2ccc[nH]2)n1
IC50 [1]: 1200 nM

COc1ccc(-c2nc(C(=O)Nc3ccccc3N3CCNCC3)cs2)cc1
Ratio IC50 [3]: 5
IC50 [1]: 72 nM

N#Cc1ccc(-c2nc(C(=O)Nc3ccccc3N3CCNCC3)cs2)cn1
IC50 [1]: 5200 nM

O=C(Nc1ccccc1N1CCNCC1)c1csc(-c2ccc(-c3ccccc3)s2)n1
IC50 [1]: 89 nM

O=C(Nc1ccccc1N1CCNCC1)c1csc(-c2ccc(Oc3ccccc3)cc2)n1
EC50 [2]: > 50000 nM
Ratio IC50 [3]: 3600
IC50 [1]: 5 nM

O=C(Nc1ccccc1N1CCNCC1=O)c1csc(-c2ccc3c(c2)CCO3)n1
IC50 [1]: > 50000 nM

COc1ccc(-c2nc(C(=O)Nc3ccccc3N3CCNCC3)cs2)cc1OC
Ratio IC50 [3]: 6.6
IC50 [1]: 520 nM

O=C(Nc1ccccc1N1CCNCC1)c1csc(-c2cc[nH]n2)n1
Ratio IC50 [3]: 33
IC50 [1]: 110 nM

O=C(Nc1ccccc1N1CCNCC1)c1csc(-c2ccccc2)n1
Ratio IC50 [3]: 12
IC50 [1]: 87 nM

O=C(Nc1ccccc1N1CCNCC1)c1csc(-c2ccc3c(c2)OCO3)n1
Ratio IC50 [3]: 18
IC50 [1]: 170 nM

O=C(Nc1ccccc1N1CCNCC1)c1csc(-c2ccc3occc3c2)n1
EC50 [2]: 2000 nM
Ratio IC50 [3]: 27
IC50 [1]: 19 nM

O=C(Nc1ccccc1N1CCNCC1)c1csc(-c2ccc3c(c2)OCCCO3)n1
IC50 [1]: 190 nM

CN1CCN(c2ccccc2NC(=O)c2csc(-c3ccc4c(c3)CCO4)n2)CC1
Ratio IC50 [3]: 0.16
IC50 [1]: 2000 nM

O=C(Nc1ccccc1N1CCNCC1)c1csc(C#Cc2ccccc2)n1
Ratio IC50 [3]: 32
IC50 [1]: 440 nM

O=C(Nc1ccccc1N1CCNCC1)c1csc(-c2csc3ccccc23)n1
Ratio IC50 [3]: 6
IC50 [1]: 69 nM

COc1ccc(-c2nc(C(=O)Nc3ccccc3N3CCNCC3)cs2)cc1C
Ratio IC50 [3]: 12
IC50 [1]: 580 nM

CN(C)c1ccc(-c2nc(C(=O)Nc3ccccc3N3CCNCC3)cs2)cc1
Ratio IC50 [3]: 73
IC50 [1]: 19 nM

O=C(Nc1ccccc1C1=CCNCC1)c1csc(-c2ccc3c(c2)CCO3)n1
Ratio IC50 [3]: 1.7
IC50 [1]: 760 nM

O=C(Nc1ccccc1N1CCNCC1)c1csc(-c2cn[nH]c2)n1
Ratio IC50 [3]: 0.67
IC50 [1]: 190 nM

CC(=O)N1CCN(c2ccccc2NC(=O)c2csc(-c3ccc4c(c3)CCO4)n2)CC1
Ratio IC50 [3]: 0.34
IC50 [1]: 4100 nM

O=C(Nc1ccccc1N1CCNCC1)c1csc(-c2cncnc2)n1
IC50 [1]: 13000 nM

O=C(Nc1ccccc1N1CCNCC1)c1csc(-c2ccc3[nH]ccc3c2)n1
EC50 [2]: 3500 nM
Ratio IC50 [3]: 960
IC50 [1]: 4 nM

C[C@H]1CN(c2ccccc2NC(=O)c2csc(-c3ccc4c(c3)CCO4)n2)CCN1
Ratio IC50 [3]: 3
IC50 [1]: 86 nM

O=C(Nc1ccccc1N1CCNCC1)c1nc(-c2ccc3c(c2)CCO3)cs1
IC50 [1]: > 50000 nM

CC#Cc1nc(C(=O)Nc2ccccc2N2CCNCC2)cs1
IC50 [1]: 3900 nM

O=C(Nc1ccccc1N1CCNCC1)c1csc(-c2ccc3c(c2)CCO3)n1
EC50 [2]: 10000 nM
Ratio IC50 [3]: 2.7
IC50 [1]: 75 nM
IC50 [4]: 210 nM
Kd [5]: < 100 nM

O=C1CN(c2ccccc2NC(=O)c2csc(-c3ccc4c(c3)CCO4)n2)CCN1
IC50 [1]: > 50000 nM

O=C(Nc1ccccc1N1CCNCC1)c1csc(-c2ccncc2)n1
Ratio IC50 [3]: 0.54
IC50 [1]: 1500 nM

O=C(Nc1ccccc1N1CCNCC1)c1csc(-c2ccc(-c3cccs3)s2)n1
IC50 [1]: 130 nM

O=C(Nc1ccccc1C1CCNCC1)c1csc(-c2ccc3c(c2)CCO3)n1
Ratio IC50 [3]: 1.8
IC50 [1]: 4500 nM

O=C(Nc1ccccc1N1CCNCC1)c1csc(-c2ccc3sccc3c2)n1
EC50 [2]: 2500 nM
Ratio IC50 [3]: 380
IC50 [1]: 5 nM

C[C@@H]1CN(c2ccccc2NC(=O)c2csc(-c3ccc4c(c3)CCO4)n2)CCN1
Ratio IC50 [3]: 2
IC50 [1]: 120 nM

From ChEMBL document CHEMBL2034873, “Discovery of a Novel Series of CHK1 Kinase Inhibitors with a Distinctive Hinge Binding Mode” (ACS Med Chem Lett, 2012)
